Data published in patent publication US4351948A, “Imidazole hydrazone derivatives” (priority 1980, dated 1982).
Structures can show the parent of a compound that is named as a salt. Where two headings read alike, the source gives them in different places.

Experiments:
Experiment in all cases: Antianaerobic activity, MIC by standard broth dilution method (Table II)
Format in all cases: cell-based
[1] = system: C. sporogenes ATCC 19404; settings: Clostridium sporogenes, ATCC19404, 24 h
Description: (§1) The activity of the compounds identified in the Table II below was tested for antianaerobic activity against one strain of Bacteroides fragilis, one strain of Bacteroides uniformis, one strain of Clostridium sporogenes and one strain of Trichomonas vaginalis as the test organism. The methods used involved determining the minimum inhibitory concentration by the standard broth dilution method. The values for metronidazole (2-methyl-5-nitro-1H-imidazole-1-ethanol) are given above for reference purposes. For convenience the compounds are referred to by an internal reference number (an HC number) and this is correlated with the number of the Example wherein its production is described.

[2] = system: T. vaginalis ATCC 30001; settings: Trichomonas vaginalis, ATCC30001, 24 h, read-out: Minimal Inhibitory Concentration (MIC)
Description: as §1, with “The values for metronidazole (2-methyl-5-nitro-1H-imidazole-1-ethanol) are given above for reference purposes.” left out

[3] = system: B. uniformis ATCC 8492; settings: Bacteroides uniformis, ATCC8492, 24 h, read-out: Minimal Inhibitory Concentration (MIC)
Description: as §1, with “The values for metronidazole (2-methyl-5-nitro-1H-imidazole-1-ethanol) are given above for reference purposes.” left out

[4] = system: B. fragilis ATCC 23745; settings: Bacteroides fragilis, ATCC23745, 24 h, read-out: Minimal Inhibitory Concentration (MIC)
Description: as §1, with “The values for metronidazole (2-methyl-5-nitro-1H-imidazole-1-ethanol) are given above for reference purposes.” left out

[5] = Test 1, read-out: Minimal Inhibitory Concentration (MIC)
[6] = Test 2, read-out: Minimal Inhibitory Concentration (MIC)
[7] = Test 3, read-out: Minimal Inhibitory Concentration (MIC)

Row | Compound | MIC [1, 5] [µg/mL] | MIC [1, 6] [µg/mL] | MIC [1, 7] [µg/mL] | MIC ([2]; Test 1) [µg/mL] | MIC ([2]; Test 2) [µg/mL] | MIC ([2]; Test 3) [µg/mL] | MIC ([3]; Test 1) [µg/mL] | MIC ([3]; Test 2) [µg/mL] | MIC ([3]; Test 3) [µg/mL] | MIC ([4]; Test 1) [µg/mL] | MIC ([4]; Test 2) [µg/mL] | MIC ([4]; Test 3) [µg/mL] | MIC ([1]; read-out: Minimal Inhibitory Concentration (MIC), Test 1) [µg/mL] | MIC ([1]; read-out: Minimal Inhibitory Concentration (MIC), Test 3) [µg/mL]
1 | CC(C(=NNc1c(Cl)cc(Cl)cc1Cl)c1ccc(Cl)cc1)n1ccnc1 (centres unmarked) [HC-561, 1-(4-chlorophenyl)-2-(1H-imidazol-1-yl)propanone, 2,4,6-trichlorophenylhydrazone, hydrochloride] | 1 | 1 | 1 | > 100 | > 100 | > 100 | 5 | 7.5 | 7.5 | 1 | 2.5 | 5 |  | 
2 | Clc1ccc(NN=C(Cn2ccnc2)c2ccc(Br)cc2)c(Cl)c1 [HC-378, 1-(4-bromophenyl)-2-(1H-imidazol-1-yl) ethanone, 2,4-dichlorophenylhydrazone, hydrochloride] | 50 | 25 | 25 | > 50 | > 50 | 50 | 10 | 2.5 | 5 | 10 | 2.5 | 2.5 |  | 
3 | Cl.Fc1ccccc1C(Cn1ccnc1)=NNc1cccc(Cl)c1Cl [HC-507, 1-(2-fluorophenyl)-2-(1H-imidazol-1-yl)ethanone, 2,3-dichlorophenylhydrazone, hydrochloride] | 2.5 | 2.5 |  |  |  |  | 5 | 2.5 |  | 2.5 | 5 |  |  | 
4 | CC(C(=NNc1c(Cl)cccc1Cl)c1ccc(Cl)cc1)n1ccnc1 (centres unmarked) [HC-403, 1-(4-chlorophenyl)-2-(1H-imidazol-1-yl)propanone, 2,6-dichlorophenylhydrazone, hydrochloride] |  | 7.5 |  | < 50 | 7.5 | < 50 | 2.5 | 2.5 | 2.5 | 5 | 2.5 | 5 | 1 | 50
5 | Cl.Clc1ccc(NN=C(Cn2ccnc2)c2ccccc2)c(Cl)c1 [HC-306, 1-Phenyl-2-(1H-imidazol-1-yl)ethanone, 2,4-dichlorophenylhydrazone, hydrochloride] | 10 | 2.5 | 2.5 | 50 | 50 | 25 | 10 | 2.5 | 2.5 | 10 | 2.5 | 2.5 |  | 
6 | Clc1ccc(NN=C(Cn2ccnc2)c2ccc(Cl)s2)c(Cl)c1 [HC-363, 1-(5-chlorothien-2-yl)-2-(1H-imidazol-1-yl) ethanone, 2,4-dichlorophenylhydrazone, hydrochloride] | 2.5 | 2.5 | 7.5 | 50 | 50 | 50 | 2.5 | 2.5 | 2.5 | 1 | 2.5 | 2.5 |  | 
7 | Cl.FC(F)(F)c1cccc(C(Cn2ccnc2)=NNc2c(Cl)cccc2Cl)c1 [HC474, 1-(3-trifluoromethylphenyl)-2-(1H-imidazol-1-yl)ethanone, 2,6-dichlorophenylhydrazone, hydrochloride] | 7.5 | 5 | 5 |  | 50 | 50 | 10 | 5 | 7.5 | 5 | 7.5 | 7.5 |  | 
8 | CC(C(=NNc1ccc(Cl)cc1Cl)c1ccc(Cl)cc1)n1ccnc1 (centres unmarked) [HC-433, 1(4-chlorophenyl)-2-(1H-imidazol-1-yl) propanone, 2,4-dichlorophenylhydrazone, hydrochloride] | 1 | 2.5 | 2.5 | 75 | 50 | 50 | 0.5 | 5 | 2.5 | 1 | 2.5 | 2.5 |  | 
9 | Cl.Clc1ccc(C(Cn2ccnc2)=NNc2c(Cl)cc(Cl)cc2Cl)c(Cl)c1 [HC-420, 1-(2,4-dichlorophenyl)-2-(1H-imidazol-1-yl)ethanone, 2,4,6-trichlorophenylhydrazone, hydrochloride] | 10 | 2.5 | 2.5 | 50 | 50 | 50 | 10 | 1 | 2.5 | 10 | 2.5 | 2.5 |  | 
10 | Cl.Clc1ccc(Cl)c(NN=C(Cn2ccnc2)c2ccccc2Cl)c1 [HC-469, 1-(2-chlorophenyl)-2-(1H-imidazol-1-yl)ethanone, 2,5-dichlorophenylhydrazone, hydrochloride] | 2.5 | 7.5 | 1 | 50 | 75 | 100 | 5 | 1 | 2.5 | 5 | 5 | 10 |  | 
11 | Cl.Fc1ccc(C(Cn2ccnc2)=NNc2ccc(Cl)c(Cl)c2)cc1 [HC-506, 1-(4-fluorophenyl)-2-(1H-imidazol-1-yl)ethanone, 3,4-dichlorophenylhydrazone, hydrochloride] | > 50 | > 50 |  |  |  |  | 5 | 2.5 |  | 5 | 5 |  |  | 
12 | Cl.FC(F)(F)c1ccc(C(Cn2ccnc2)=NNc2c(Cl)cccc2Cl)cc1 [HC-438, 1-(4-trifluoromethylphenyl)-2-(1H-imidazol-1-yl)ethanone, 2,6-dichlorophenylhydrazone, hydrochloride] | 2.5 | 7.5 | 2.5 | 25 | 50 | 75 | 5 | 5 | 5 | 5 | 7.5 | 5 |  | 
13 | Cl.FC(F)(F)c1ccc(C(Cn2ccnc2)=NNc2c(Cl)cc(Cl)cc2Cl)cc1 [HC-482, 1-(4-trifluoromethylphenyl)-2-(1H-imidazol-1-yl)ethanone, 2,4,6-trichlorophenylhydrazone, hydrochloride] | 5 | 5 | 5 | 25 | 25 | 25 | 2.5 | 2.5 | 2.5 | 5 | 5 | 5 |  | 
14 | Clc1ccc(NN=C(Cn2ccnc2)c2cc(Cl)ccc2Cl)c(Cl)c1 [HC-525, 1-(2,5-dichlorophenyl)-2-(1H-imidazol-1-yl) ethanone, 2,4-dichlorophenylhydrazone, hydrochloride] | 2.5 | 2.5 | 2.5 | 50 | 50 | 50 | 2.5 | 2.5 | 2.5 | 2.5 | 2.5 | 2.5 |  | 
15 | Cl.Clc1ccc(C(Cn2ccnc2)=NNc2ccccc2Br)cc1 [HC-486, 1-(4-chlorophenyl)-2-(1H-imidazol-1-yl)ethanone, 2-bromophenylhydrazone, hydrochloride] | 2.5 | 5 | 5 | 50 | 50 | 75 | 2.5 | 2.5 | 5 | 5 | 5 | 5 |  | 
16 | Cl.Clc1cccc(Cl)c1NN=C(Cn1ccnc1)c1ccc(Br)cc1 [HC-364, 1-(4-bromophenyl)-2-(1H-imidazol-1-yl)ethanone, 2,6-dichlorophenylhydrazone, hydrochloride] | 10 | 5 | 25 | 50 | 50 | 50 | 10 | 2.5 | 2.5 | 10 | 2.5 | 5 |  | 
